These results are taken from patent US20060142621A1, “Bismuth dithiocarbamate compounds and uses thereof” (priority 2003, published 2006).

In one data set the test system is BALB/c mice. The data set can be described thus: Maximum Tolerated Dose (MTD) / lethal dose determination in Balb/C mouse model. Format: in vivo. Here is the method:
The MTD of Bi(S2CNEt2)3 was determined in the following manner. Male and female BALB/c mice obtained from the Laboratory Animal Centre, (National University of Singapore), were used for the study. The mice used were about 4-5 weeks old with a mean body weight of 20±2 g. The 5 mice per cage were kept at room temperature and under standard light conditions. They received standard mouse chow and water. […] The mice in the control group were administered with DMSO only. […] An initial concentration of 20 mg Bi/kg was used for a small sampling population of two mice, one of each gender. If both mice died, the complex concentration was decreased, and the experiment was repeated for another two mice. If one of the mice died but the other survived, the experiment was repeated for a larger sampling population of ten mice, five of each gender, for the same complex concentration. The observation period lasted 14 days. The objective of the experiment was to plot a graph of percent of live mice (number of survivors/ten×100%) against compound dosage (in mg Bi/kg). This procedure enabled the determination of the Maximum Tolerated Dose (at MTD 90% survival of mice).

Data set [1] concerns OVCAR human ovarian cancer. The data set can be described thus: in vivo anti-tumour activity, OVCAR xenograft in nude Balb/C mice. The arrangement: species or system mouse. The note with it: nude Balb/C mice with OVCAR, 0.14 mg Bi/kg. Here is the method:
Female BALB/C-nude mice, obtained from the Animal Resources Centre in Queensland, Australia were used for this experiment. […] Throughout this experiment, the mice were housed in filtered air laminar-flow cabinets and were manipulated following standard aseptic procedures.
Human ovarian cancer (OVCAR) cells were provided by Dr Ho (Department of Pharmacy, National University of Singapore). OVCAR cells were grown in RPMI-1640 medium with 10% foetal bovine serum and 5 mM L-glutamine.
A suspension of OVCAR cells (10^7 cells) were injected subcutaneously (s.c.) in the flank of each animal (0.1 ml per mice). When the volume of the tumour reached approximately 50-100 mm^3, the mice were randomly divided into 2 groups, the test group and the control group, comprising 6 mice in each group.
The compound was given subcutaneously to mice in amounts of 0.1 ml/20 g three times every two days in the first week. The dose applied was at the level of the MTD, i.e. 0.14 mg Bi/kg mouse. […]
In xenografts transplanted subcutaneously, tumour growth was monitored and the volume of the tumour was determined by measuring its diameter with a vernier calliper every 2-4 days. The Relative Tumour Volume (RTV=tumour volume on day×/tumour volume on day 1) was calculated using the formula width^2×length×0.52.

[2] abbreviates: i.p. in DMSO, 14 days observation.

For orientation: LD50 means the dose at which mortality reaches 50%. Read a high LD50 as lower toxicity.

“bismuth (III) tris(N,N-diethyldithiocarbamate) [Bi(S2CNEt2)3]” displayed an MTD in the data set with BALB/c mice (MTD = 90% survival of mice) of 0.14 mg Bi/kg mouse. In the data set on BALB/c mice (setting [2]), this substance registered an LD10 of 0.14 mg/kg, an LD50 of 3.57 mg/kg and an LD90 of 7 mg/kg. The anti-tumour activity result in data set [1] is reported as “significant anti-tumour activity”.
